Source: the NIST ThermoML archive (doi:10.1021/acs.jced.8b00213)
Numbers after ± are expanded uncertainties.

Key:
[1] = refractive index (Na D-line) (dimensionless); xn = mol fraction of the nth substance listed; conditions: 100 kPa, Liquid, Standard Abbe refractometry, x1 = 0.25
[2] = xn = mol fraction of the nth substance listed; conditions: 100 kPa, Liquid, x1 = 0.25; for electrical conductivity: Alternating current cell with electrodes; for speed of sound: Single path-length method; for mass density: Vibrating tube method; for viscosity: Falling or rolling sphere viscometry

Which results are given for `CCCC[N+](CCCC)(CCCC)Cc1ccccc1.[Cl-]` [benzyltributylammonium chloride] + OCC(O)CO?
refractive index ([1]; 283.15 K): 1.5095 ± 0.0011; refractive index ([1]; 288.15 K): 1.5079 ± 0.0011; refractive index ([1]; 293.15 K): 1.5065 ± 0.0011; refractive index ([1]; 298.15 K): 1.5051 ± 0.0011; refractive index ([1]; 303.15 K): 1.5036 ± 0.0011; refractive index ([1]; 308.15 K): 1.5021 ± 0.0011; refractive index ([1]; 313.15 K): 1.5006 ± 0.0011; refractive index ([1]; 318.15 K): 1.4992 ± 0.0011; refractive index ([1]; 323.15 K): 1.4977 ± 0.0011; refractive index ([1]; 328.15 K): 1.4962 ± 0.0011; refractive index ([1]; 333.15 K): 1.4948 ± 0.0011; refractive index ([1]; 338.15 K): 1.4933 ± 0.0011; refractive index ([1]; 343.15 K): 1.4917 ± 0.0011; electrical conductivity ([2]; 283.15 K): 0.003 ± 0.001 S/m; speed of sound ([2]; 283.15 K): 1908 ± 3.9 m/s; mass density ([2]; 283.15 K): 1112.02 ± 11 kg/m3; electrical conductivity ([2]; 288.15 K): 0.005 ± 0.001 S/m; speed of sound ([2]; 288.15 K): 1866.4 ± 3.8 m/s; mass density ([2]; 288.15 K): 1108.9 ± 11 kg/m3; electrical conductivity ([2]; 293.15 K): 0.007 ± 0.001 S/m; speed of sound ([2]; 293.15 K): 1833 ± 3.8 m/s; mass density ([2]; 293.15 K): 1105.78 ± 11 kg/m3; electrical conductivity ([2]; 298.15 K): 0.009 ± 0.001 S/m; viscosity ([2]; 298.15 K): 2328.1 ± 300 mPa·s; speed of sound ([2]; 298.15 K): 1805.3 ± 3.7 m/s; mass density ([2]; 298.15 K): 1102.66 ± 11 kg/m3; electrical conductivity ([2]; 303.15 K): 0.013 ± 0.001 S/m; viscosity ([2]; 303.15 K): 1709.2 ± 200 mPa·s; speed of sound ([2]; 303.15 K): 1782 ± 3.7 m/s; mass density ([2]; 303.15 K): 1099.54 ± 11 kg/m3; electrical conductivity ([2]; 308.15 K): 0.019 ± 0.001 S/m; viscosity ([2]; 308.15 K): 1112.1 ± 120 mPa·s; speed of sound ([2]; 308.15 K): 1761.7 ± 3.6 m/s; mass density ([2]; 308.15 K): 1096.41 ± 11 kg/m3; electrical conductivity ([2]; 313.15 K): 0.025 ± 0.001 S/m; viscosity ([2]; 313.15 K): 740.9 ± 67 mPa·s; speed of sound ([2]; 313.15 K): 1743.5 ± 3.6 m/s; mass density ([2]; 313.15 K): 1093.28 ± 11 kg/m3; electrical conductivity ([2]; 318.15 K): 0.038 ± 0.002 S/m; viscosity ([2]; 318.15 K): 497.7 ± 38 mPa·s; speed of sound ([2]; 318.15 K): 1726.8 ± 3.6 m/s; mass density ([2]; 318.15 K): 1090.07 ± 11 kg/m3; electrical conductivity ([2]; 323.15 K): 0.047 ± 0.002 S/m; viscosity ([2]; 323.15 K): 346.1 ± 23 mPa·s; speed of sound ([2]; 323.15 K): 1711.2 ± 3.5 m/s; mass density ([2]; 323.15 K): 1086.95 ± 11 kg/m3; electrical conductivity ([2]; 328.15 K): 0.065 ± 0.003 S/m; viscosity ([2]; 328.15 K): 254.6 ± 14 mPa·s; speed of sound ([2]; 328.15 K): 1696 ± 3.5 m/s; mass density ([2]; 328.15 K): 1083.85 ± 11 kg/m3; electrical conductivity ([2]; 333.15 K): 0.086 ± 0.003 S/m; viscosity ([2]; 333.15 K): 185.3 ± 8.4 mPa·s; speed of sound ([2]; 333.15 K): 1681.5 ± 3.5 m/s; mass density ([2]; 333.15 K): 1080.72 ± 11 kg/m3; electrical conductivity ([2]; 338.15 K): 0.109 ± 0.004 S/m; viscosity ([2]; 338.15 K): 138.1 ± 5.2 mPa·s; speed of sound ([2]; 338.15 K): 1667.3 ± 3.5 m/s; mass density ([2]; 338.15 K): 1077.58 ± 11 kg/m3; electrical conductivity ([2]; 343.15 K): 0.138 ± 0.006 S/m; viscosity ([2]; 343.15 K): 105 ± 3.2 mPa·s; speed of sound ([2]; 343.15 K): 1653.9 ± 3.4 m/s; mass density ([2]; 343.15 K): 1074.43 ± 11 kg/m3
